{"source": "patent US5863931A", "about": "“Amidino derivatives and their use as nitric oxide synthase inhibitors” (priority 1991, dated 1999)", "key": {"Constitutive NO synthase": {"target": "T1, Constitutive NO synthase (Rattus norvegicus, UniProt Q62600)", "T1 construct": "The basal tone of the tissue is used as an indication of the activity of the constitutive NO synthase; from tissue; host or cells: rat aortic rings", "test": "Constitutive NO synthase inhibition (method of Rees et al, Br. J. Pharmacol. 1990; rat aortic rings in vitro, basal tone)", "type": "cell-based", "procedure": "The activity of a compound as an inhibitor of the enzyme NO synthase can be determined by an assay in which a macrophage cell line (J774) is induced to express NO synthase with lipopolysaccharide (LPS) and interferon gamma and NO generated is measured by its reaction with haemoglobin or as nitrite. […] Selectivity can be determined by use of an assay based on rat aortic rings in vitro. The basal tone of the tissue is used as an indication of the activity of the constitutive NO synthase whereas LPS-induced loss of tone mediated by NO is used as an indication of the activity of the inducible enzyme in the vascular smooth muscle cells. […] Constitutive NO synthase--method of Rees et al, Br. J. Pharmacol., 101, 746-752 (1990)"}, "Inducible NO synthase": {"target": "T2, Inducible NO synthase (Rattus norvegicus, UniProt Q06518)", "T2 construct": "activity of the inducible enzyme in the vascular smooth muscle cells; from tissue; host or cells: rat aortic rings, LPS-induced (vascular smooth muscle)", "test": "Inducible NO synthase inhibition (method essentially according to Rees et al, Biochem. Biophys. Res. Comm. 1990; rat aortic rings, LPS-induced loss of tone)", "type": "cell-based", "settings": "for EC50 ratio: constitutive EC50 / inducible EC50", "procedure": "The activity of a compound as an inhibitor of the enzyme NO synthase can be determined by an assay in which a macrophage cell line (J774) is induced to express NO synthase with lipopolysaccharide (LPS) and interferon gamma and NO generated is measured by its reaction with haemoglobin or as nitrite. […] Selectivity can be determined by use of an assay based on rat aortic rings in vitro. The basal tone of the tissue is used as an indication of the activity of the constitutive NO synthase whereas LPS-induced loss of tone mediated by NO is used as an indication of the activity of the inducible enzyme in the vascular smooth muscle cells.\nInducible NO synthase--method essentially according to Rees et al, Biochem. Biophys. Res. Comm., 173, 541-547 (1990)."}, "[1]": {"test_system": "constitutive and the inducible NO synthase", "settings": "inhibits both constitutive and inducible NO synthase; cited from earlier work"}, "[2]": {"settings": "inducible NO synthase, read-out: NO Synthase Activity Inducible EC50"}}, "note": "pEC50: −log10 of the molar value. Read-outs that look alike come from different tables or passages of the source.", "data": [{"smiles": "CC(=N)NC/C=C/CC(N)C(=O)O.Cl", "note": "(racemic) [Example 3, (±)-E-2-Amino-6-(1-Iminoethylamino)-hex-4-enoic acid hydrochloride]", "values": [{"measurement": "pEC50", "setting": "Constitutive NO synthase", "value": 5.51}, {"measurement": "EC50 ratio", "setting": "Inducible NO synthase", "value": 9.7}, {"measurement": "pEC50", "setting": "Inducible NO synthase; [2]", "value": 6.49}]}, {"smiles": "CC(=N)NCCC[C@H](N)C(=O)O.Cl", "note": "[Example 1, (S)-N^5-(1-Iminoethyl)ornithine hydrochloride]", "values": [{"measurement": "pEC50", "setting": "Constitutive NO synthase", "value": 5.29}, {"measurement": "EC50 ratio", "setting": "Inducible NO synthase", "value": 36.4}, {"measurement": "pEC50", "setting": "Inducible NO synthase; [2]", "value": 6.85}]}, {"smiles": "CC(=N)NCCCC[C@H](N)C(=O)O.Cl", "note": "[Example 2, (S)-N^6-(1-Iminoethyl) lysine hydrochloride]", "values": [{"measurement": "pEC50", "setting": "Constitutive NO synthase", "value": 5.16}, {"measurement": "pEC50", "setting": "Inducible NO synthase", "value": 6.80}, {"measurement": "EC50 ratio", "setting": "Inducible NO synthase", "value": 43.1}]}, {"smiles": "CC(=N)NCCSC[C@@H](N)C(=O)O.Cl", "note": "[Example 4, (S)-S-2-(1-Iminoethylamino)ethylcysteine hydrochloride]", "values": [{"measurement": "pEC50", "setting": "Constitutive NO synthase", "value": 5.37}, {"measurement": "EC50 ratio", "setting": "Inducible NO synthase", "value": 33.4}, {"measurement": "pEC50", "setting": "Inducible NO synthase; [2]", "value": 6.89}]}, {"smiles": "CN=C(N)NCCC[C@H](N)C(=O)O", "note": "[L-NMMA, L-N-monomethyl-arginine]", "values": [{"measurement": "selectivity between constitutive and inducible NO synthase", "setting": "[1]", "value": "non-selective"}]}]}
